From US20130035326A1 (AMBIT BIOSCIENCES CORPORATION, priority 2009, published 2013)

Legend:
FLT3 kinase = biological target: T1, FLT3 kinase (Homo sapiens, UniProt P36888); test: Competition binding assay, FLT3 Kd
T1 construct: made in house; host or cells: T7 phage display or HEK-293 cells
T1 sequence (P36888 27-993): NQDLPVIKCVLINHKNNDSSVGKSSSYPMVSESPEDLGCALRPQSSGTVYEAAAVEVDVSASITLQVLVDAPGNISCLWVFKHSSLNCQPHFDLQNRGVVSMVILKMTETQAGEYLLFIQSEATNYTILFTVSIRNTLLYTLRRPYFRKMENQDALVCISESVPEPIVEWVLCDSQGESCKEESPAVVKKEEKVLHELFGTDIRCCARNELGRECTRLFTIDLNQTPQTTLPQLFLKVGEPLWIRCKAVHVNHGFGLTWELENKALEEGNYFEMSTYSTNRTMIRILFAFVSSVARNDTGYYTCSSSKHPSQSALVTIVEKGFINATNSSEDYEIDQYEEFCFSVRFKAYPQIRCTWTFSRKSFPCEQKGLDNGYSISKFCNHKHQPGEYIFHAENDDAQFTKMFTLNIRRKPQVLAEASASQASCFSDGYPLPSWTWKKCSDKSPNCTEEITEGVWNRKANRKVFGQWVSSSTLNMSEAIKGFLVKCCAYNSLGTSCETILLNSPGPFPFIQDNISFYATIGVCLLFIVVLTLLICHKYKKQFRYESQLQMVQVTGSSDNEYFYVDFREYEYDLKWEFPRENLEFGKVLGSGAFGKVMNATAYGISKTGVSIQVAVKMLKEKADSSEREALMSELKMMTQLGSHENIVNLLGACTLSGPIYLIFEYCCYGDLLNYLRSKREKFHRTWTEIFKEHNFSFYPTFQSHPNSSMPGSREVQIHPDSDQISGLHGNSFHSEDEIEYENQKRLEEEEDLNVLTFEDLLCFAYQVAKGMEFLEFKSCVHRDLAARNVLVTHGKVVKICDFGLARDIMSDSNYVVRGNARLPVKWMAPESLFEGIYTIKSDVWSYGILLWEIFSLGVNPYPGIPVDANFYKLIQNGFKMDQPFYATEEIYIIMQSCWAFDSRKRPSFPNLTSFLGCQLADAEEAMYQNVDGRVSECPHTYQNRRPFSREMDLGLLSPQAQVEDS
How it was run: (§1)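 Equilibrium Kd measured by competition against immobilized ligand; kinase as T7 phage fusion or HEK-293 DNA-tagged protein; 1 h RT; qPCR read-out of eluate.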

KIT kinase = biological target: T2, KIT kinase (Homo sapiens, UniProt P10721); test: Competition binding assay, KIT Kd
T2 construct: made in house; host or cells: T7 phage display or HEK-293 cells
How it was run: as §1

CSF-1R kinase = biological target: T3, CSF-1R kinase (Homo sapiens, UniProt P07333); test: Competition binding assay, CSF-1R Kd
T3 construct: made in house; host or cells: T7 phage display or HEK-293 cells
How it was run: as §1

MV4-11 cells = test: MV4-11 cell proliferation assay (Alamar Blue); type: cell-based; settings: 3 days incubation
How it was run: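 Flt3-ITD MV4-11 cells were serum-starved overnight in Iscove's with 0.5% FBS, then given compound at 9 half-log concentrations (0.5% DMSO) for 3 days at 37° C. Alamar Blue reduction was read after 3 h by fluorescence (560/590 nm). IC50 is the mean of duplicates versus negative control.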

[1] = biological target: kinase panel containing either 359 or 386 distinct kinases; test: Selectivity score S10 from competition binding against a panel of kinases; settings: compounds at 10 μM; for Kinase specificty: S(10)-386 panel: panel of 386 distinct kinases; for Kinase specificty: S(10)-359 panel: panel of 359 distinct kinases
How it was run: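 Compounds were tested at 10 μM in competition binding against T7 phage-fused or HEK-293-expressed DNA-tagged kinases with immobilized affinity ligands, 1 h at room temperature. Bound kinase was quantified by qPCR as percent of DMSO control; S10 is the fraction of distinct kinases (mutants excluded) with POC below 10.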

T3 sequence (P07333 20-972): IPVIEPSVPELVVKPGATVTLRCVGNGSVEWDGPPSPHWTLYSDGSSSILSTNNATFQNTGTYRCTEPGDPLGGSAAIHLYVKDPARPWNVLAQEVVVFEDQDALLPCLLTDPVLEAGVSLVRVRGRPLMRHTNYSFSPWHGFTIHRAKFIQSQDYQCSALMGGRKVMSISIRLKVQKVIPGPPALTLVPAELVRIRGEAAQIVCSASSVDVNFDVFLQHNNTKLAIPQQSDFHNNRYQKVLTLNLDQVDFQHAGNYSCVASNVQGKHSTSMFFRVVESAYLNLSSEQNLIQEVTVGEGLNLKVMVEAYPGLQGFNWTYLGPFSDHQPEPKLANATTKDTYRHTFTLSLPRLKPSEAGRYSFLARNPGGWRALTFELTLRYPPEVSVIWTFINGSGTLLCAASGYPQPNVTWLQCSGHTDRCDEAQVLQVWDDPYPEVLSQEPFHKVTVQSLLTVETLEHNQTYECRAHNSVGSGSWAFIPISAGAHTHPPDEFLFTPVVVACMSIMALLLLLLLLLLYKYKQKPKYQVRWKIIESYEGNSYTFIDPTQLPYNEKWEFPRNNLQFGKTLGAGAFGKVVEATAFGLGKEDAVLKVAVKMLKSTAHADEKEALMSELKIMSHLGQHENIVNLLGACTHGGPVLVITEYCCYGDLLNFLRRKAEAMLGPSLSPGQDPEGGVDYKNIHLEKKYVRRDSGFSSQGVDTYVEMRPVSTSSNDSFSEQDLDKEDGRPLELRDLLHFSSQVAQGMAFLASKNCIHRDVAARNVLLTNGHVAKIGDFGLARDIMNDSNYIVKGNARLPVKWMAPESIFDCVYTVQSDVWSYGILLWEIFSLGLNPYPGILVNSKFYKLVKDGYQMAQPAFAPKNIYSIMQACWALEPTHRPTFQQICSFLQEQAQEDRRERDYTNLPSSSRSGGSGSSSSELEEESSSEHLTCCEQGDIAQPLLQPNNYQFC
T2 sequence (P10721 26-976): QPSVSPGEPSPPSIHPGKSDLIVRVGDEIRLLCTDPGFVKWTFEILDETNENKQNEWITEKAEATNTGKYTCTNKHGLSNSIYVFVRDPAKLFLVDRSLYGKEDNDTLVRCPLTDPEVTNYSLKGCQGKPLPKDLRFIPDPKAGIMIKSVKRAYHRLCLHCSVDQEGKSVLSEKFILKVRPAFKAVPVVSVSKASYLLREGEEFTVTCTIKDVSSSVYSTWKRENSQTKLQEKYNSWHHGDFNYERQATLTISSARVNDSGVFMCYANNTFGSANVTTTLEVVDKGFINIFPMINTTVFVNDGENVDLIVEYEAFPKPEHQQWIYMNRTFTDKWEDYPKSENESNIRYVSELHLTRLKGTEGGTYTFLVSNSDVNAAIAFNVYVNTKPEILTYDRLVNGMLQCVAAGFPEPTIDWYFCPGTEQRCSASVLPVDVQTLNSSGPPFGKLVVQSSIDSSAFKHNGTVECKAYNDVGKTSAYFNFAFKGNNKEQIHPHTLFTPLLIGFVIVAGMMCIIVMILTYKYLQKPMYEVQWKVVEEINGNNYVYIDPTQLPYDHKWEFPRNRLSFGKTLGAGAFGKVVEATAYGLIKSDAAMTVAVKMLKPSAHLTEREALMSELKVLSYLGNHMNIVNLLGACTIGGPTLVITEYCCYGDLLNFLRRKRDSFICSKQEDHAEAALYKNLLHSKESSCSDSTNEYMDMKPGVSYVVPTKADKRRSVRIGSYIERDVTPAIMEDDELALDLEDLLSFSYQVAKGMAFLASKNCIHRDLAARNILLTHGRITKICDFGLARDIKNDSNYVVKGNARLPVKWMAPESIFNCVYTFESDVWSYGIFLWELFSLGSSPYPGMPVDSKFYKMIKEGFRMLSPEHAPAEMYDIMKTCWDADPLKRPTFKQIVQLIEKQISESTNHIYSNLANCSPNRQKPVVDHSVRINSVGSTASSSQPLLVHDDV

Compound	Kd (FLT3 kinase)	Kd (KIT kinase)	Kd (CSF-1R kinase)	IC50 (MV4-11 cells; Homo sapiens, MV4-11, 72 h)	Kinase specificty: S(10)-386 panel [1]	Kinase specificty: S(10)-359 panel [1]	IC50 (MV4-11 cells)
O=C(Nc1ccc(-c2cnc(NCCN3CCOCC3)nc2)cc1)Nc1cc(C2(C(F)(F)F)CC2)on1 [Example 53, 1-{4-[2-(2-morpholin-4-yl-ethylamino)-pyrimidin-5-yl]-phenyl}-3-[5-(1-trifluoromethyl-cyclopropyl)-isoxazol-3-yl]urea]	≤ 1 nM	≤ 1 nM	≤ 10 nM	1 to 10 nM		B (0.1<B≦0.2 nM)	
Cc1cc(-c2ccc(CC(=O)Nc3cc(C4(C)CC4)on3)cc2)cnc1N [Example 158]	≤ 1 nM	≤ 1 nM	≤ 10 nM	1 to 10 nM	A (A≦0.1)		
CC(C)(C)c1cc(NC(=O)Cc2ncc(-c3ccc(N)nc3)cc2F)no1.CS(=O)(=O)O [Example 148, 6′-(2-(5-tert-butylisoxazol-3-ylamino)-2-oxoethyl)-5′-fluoro-3,3′-bipyridin-6-aminium methanesulfonate]	≤ 1 nM	≤ 1 nM	≤ 10 nM	1 to 10 nM	A (A≦0.1)		
COc1nc(N)ncc1-c1ccc(NC(=O)Nc2cc(C(C)(C)C)on2)cc1 [Example 50, 1-[4-(2-amino-4-methoxypyrimidin-5-yl)-phenyl]-3-(5-tert-butylisoxazol-3-yl)-urea]	1 to 10 nM	≤ 1 nM	≤ 10 nM	≤ 1 nM		B (0.1<B≦0.2 nM)	
2-(4-(6-aminopyridin-3-yl)phenyl)-N-(3-tert-butyl-1H-pyrazol-1-yl)acetamide and 2-(4-(6-aminopyridin-3-yl)phenyl)-N-(5-tert-butyl-1H-pyrazol-1-yl)acetamide [Example 91]	≤ 1 nM	1 to 10 nM	10 to 100 nM		A (A≦0.1)		1 to 10 nM
CC(C)(C)c1cc(NC(=O)Nc2ccc(-c3cnc(NCCN4CCCCC4)nc3)cc2)no1 [Example 60, 1-(5-tert-butylisoxazol-3-yl)-3-(4-(2-(2-(piperidin-1-yl)ethylamino)pyrimidin-5-yl)phenyl)urea]	≤ 1 nM	1 to 10 nM	≤ 10 nM	10 to 100 nM		B (0.1<B≦0.2 nM)	
CC(C)(C)c1cc(NC(=O)Nc2ccc(-c3ccc(N)nc3)cc2)no1 [Example 1, 1-(4-(6-aminopyridin-3-yl)phenyl)-3-(5-tert-butylisoxazol-3-yl)urea]	≤ 1 nM	≤ 1 nM	≤ 10 nM	≤ 1 nM	A (A≦0.1)	A (A≦0.1)	
CC(C)(C)c1cc(NC(=O)Cc2ccc(-c3ccc(NCCN4CCOCC4)nc3)cc2)on1.CS(=O)(=O)O [Example 96, 5-(4-(2-(3-tert-butylisoxazol-5-ylamino)-2-oxoethyl)phenyl)-N-(2-morpholinoethyl)pyridin-2-aminium methanesulfonate]	≤ 1 nM	≤ 1 nM	≤ 10 nM	1 to 10 nM	B (0.1<B≦0.2 nM)		
Cc1nc(N)ncc1-c1ccc(NC(=O)Nc2cc(C(C)(C)C)on2)cc1 [Example 49, 1-(4-(2-amino-4-methylpyrimidin-5-yl)phenyl)-3-(5-tert-butylisoxazol-3-yl)urea]	≤ 1 nM	≤ 1 nM	≤ 10 nM	≤ 1 nM		B (0.1<B≦0.2 nM)	

Now from value to compound, other results behind:

Kd (FLT3 kinase)	Kd (KIT kinase)	Kd (CSF-1R kinase)	IC50 (MV4-11 cells; Homo sapiens, MV4-11, 72 h)	Kinase specificty: S(10)-386 panel [1]	Kinase specificty: S(10)-359 panel [1]	Compound	IC50 (MV4-11 cells)
≤ 1 nM	1 to 10 nM	≤ 10 nM	≤ 1 nM	B (0.1<B≦0.2 nM)		CC(C)(C)c1cc(NC(=O)Cc2ccc(-c3ccc(N)nc3)cc2F)no1 [Example 78, 2-(4-(6-aminopyridin-3-yl)-2-fluorophenyl)-N-(5-tert-butylisoxazol-3-yl)acetamide]	
≤ 1 nM	≤ 1 nM	≤ 10 nM	≤ 1 nM	A (A≦0.1)		CCNc1ccc(-c2ccc(CC(=O)Nc3cc(C(C)(C)C)on3)cc2)cn1.CS(=O)(=O)O [Example 111, 5-(4-(2-(5-tert-butylisoxazol-3-ylamino)-2-oxoethyl)phenyl)-N-ethylpyridin-2-aminium methanesulfonate]	
1 to 10 nM	1 to 10 nM	10 to 100 nM	10 to 100 nM		B (0.1<B≦0.2 nM)	CC(C)(C)c1cc(NC(=O)Nc2ccc(-c3ccc(N)nc3)cc2Cl)no1 [Example 15, 1-(4-(6-aminopyridin-3-yl)-2-chlorophenyl)-3-(5-tert-butylisoxazol-3-yl)urea]	
≤ 1 nM	1 to 10 nM	10 to 100 nM	1 to 10 nM	A (A≦0.1)		COc1cc(N)ncc1-c1ccc(CC(=O)Nc2cc(C(C)(C)C)on2)cc1 [Example 157]	
≤ 1 nM	1 to 10 nM	≤ 10 nM	≤ 1 nM	B (0.1<B≦0.2 nM)		CC(F)(F)C1(c2cc(NC(=O)Cc3ccc(-c4ccc(N)nc4)cc3)no2)CC1 [Example 153]	
≤ 1 nM	≤ 1 nM	≤ 10 nM	≤ 1 nM	A (A≦0.1)		CC(C)(C)c1cc(NC(=O)Cc2ccc(-c3ccc(N)nc3)c(F)c2)no1.CS(=O)(=O)O [Example 125, 5-(4-(2-(5-tert-butylisoxazol-3-ylamino)-2-oxoethyl)-2-fluorophenyl)pyridin-2-aminium methanesulfonate]	
≤ 1 nM	1 to 10 nM	10 to 100 nM	10 to 100 nM	A (A≦0.1)		CC(C)(C)c1cc(NC(=O)Cc2ccc(-c3cnc(N)cc3C(F)(F)F)cc2)no1 [Example 156]	
≤ 1 nM	≤ 1 nM	100 to 500 nM	10 to 100 nM	A (A≦0.1)		CC(C)(C)c1cc(NC(=O)Cc2ccc(-c3ccc(N)nc3)nc2)no1 [Example 155]	
≤ 1 nM	1 to 10 nM	≤ 10 nM	≤ 1 nM	A (A≦0.1)		CC(C)(C)c1cc(NC(=O)Cc2ccc(-c3ccc(N)nc3F)cc2)no1.CS(=O)(=O)O [Example 95, 5-(4-(2-(5-tert-butylisoxazol-3-ylamino)-2-oxoethyl)phenyl)-6-fluoropyridin-2-aminium methanesulfonate]	
